Source: patent US20230203060A1 (GENFLEET THERAPEUTICS (SHANGHAI) INC., priority 2020, published 2023)
pIC50: −log10 of the molar value. Like-named read-outs stand apart in the source and are kept apart here.

What was measured:
Format in all cases: cell-based, human
[1] = test system: A549 cells (KRAS G12S mutant); assay: Cell proliferation inhibition experiment, 3D spheroid, CellTiter-Glo, A549; settings: read-out: A549 IC50
In short: (§1)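 3D spheroid format; 800 H358 / 400 A549 cells/well, 2% FBS. Cpd 3.16-fold series, 0.1% DMSO, 5 d. Readout CellTiter-Glo luminescence; IR% vs DMSO control and medium blank; 4-parameter IC50.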

[2] = test system: KRAS G12C mutant NCI-H358 cells; assay: Cell proliferation inhibition experiment, 3D spheroid, CellTiter-Glo, NCI-H358; settings: read-out: H358 IC50
In short: as §1

[3] = test system: KRAS G12C mutant MIA PaCa-2 cells; assay: Cell proliferation inhibition experiment, 3D spheroid, CellTiter-Glo, MIA PaCa-2; settings: read-out: MIA-PaCa2 IC50
In short: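 Luminescent ATP read-out (CellTiter-Glo) after 5-day compound treatment of spheroids formed overnight from 200 MIA PaCa-2 cells/well; compounds in 3.16-fold series, 0.1% DMSO final. IC50 derived by four-parameter fit of percent inhibition, normalized to DMSO control and medium blank.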

[4] = Homo sapiens, A549, 120 h, A549 (KRAS G12S mutant) 3D spheroid, 5 days with compound, CellTiter-Glo
[5] = Homo sapiens, NCI-H358, 120 h, NCI-H358 (KRAS G12C mutant) 3D spheroid, 5 days with compound, CellTiter-Glo
[6] = Homo sapiens, MIA PaCa-2, 120 h, 3D cell model in 384-well spheroid plate, 5 days, CellTiter-Glo
[7] = NCI-H358 (KRAS G12C mutant) 3D spheroid, 5 days with compound, CellTiter-Glo
[8] = A549 (KRAS G12S mutant) 3D spheroid, 5 days with compound, CellTiter-Glo
[9] = 3D cell model in 384-well spheroid plate, 5 days, CellTiter-Glo

Row | pIC50 [1, 4] | pIC50 [2, 5] | pIC50 [3, 6] | pIC50 [2, 7] | SMILES | also measured
1 | 4.70 | 8.52 | 8.35 | – | C=CC(=O)N1CCN2C(=O)c3c(N4CC(=O)N(C)CC4C)nc(-c4c(O)cccc4F)c(Cl)c3OC[C@H]2C1 (stereo partly drawn) [Z221, (6aR)-8-acryloyl-4-chloro-1-(2,4-dimethyl-5-oxopiperazin-1-yl)-3-(2-fluoro-6-hydroxyphenyl)-6,6a,7,8,9,10-hexahydro-12H-pyrazino[2,1-c]pyrido[3,4-f][1,4]oxazepin-12-one] | –
2 | < 4.52 | – | 8.06 | 8.57 | C=CC(=O)N1CCN2C(=O)c3c(N4CC(=O)N(C)CC4C)nc(-c4c(O)cccc4F)c(Cl)c3OC[C@H]2C1 (single isomer, unassigned) [Z221-1] | –
3 | 5.05 | 8.18 | 7.97 | – | C=CC(=O)N1CCN2C(=O)c3c(N4CCN(C)C(C)(C)C4)nc(-c4c(O)cccc4F)c(Cl)c3OC[C@H]2C1 [Z261, (6aR)-8-acryloyl-4-chloro-3-(2-fluoro-6-hydroxyphenyl)-1-(3,3,4-trimethylpiperazin-1-yl)-6,6a,7,8,9,10-hexahydro-12H-pyrazino[2,1-c]pyrido[3,4-f][1,4]oxazepin-12-one] | –
4 | – | – | – | – | C=CC(=O)N1CCN2C(=O)c3c(N4CCN(CC)C[C@@H]4C)nc(-c4c(O)cccc4F)c(Cl)c3OC[C@H]2C1 [Z236] | pIC50 ([1]; Homo sapiens, A549, 120 h): 5.02; pIC50 ([2]; Homo sapiens, NCI-H358, 120 h): 8.24; pIC50 ([3]; Homo sapiens, MIA PaCa-2, 120 h): 8.10
5 | 5.08 | – | 8.96 | 9.30 | C=CC(=O)N1CCN2C(=O)c3c(N4CC(N(C)C5COC5)CC4(C)C)nc(-c4c(O)cccc4F)c(Cl)c3OC[C@H]2C1 (single isomer, unassigned) [Z331-1] | –
6 | < 4.52 | 7.48 | 7.59 | – | C=CC(=O)N1CCN2C(=O)c3c(OC4CCN(C)CC4)nc(-c4c(O)cccc4F)c(Cl)c3OC[C@H]2C1 [Z61, (6aR)-8-acryloyl-4-chloro-3-(2-fluoro-6-hydroxyphenyl)-1-((1-methylpiperidin-4-yl)oxy)-6,6a,7,8,9,10-hexahydro-12H-pyrazino[2,1-c]pyrido[3,4-f][1,4]oxazepin-12-one] | –
7 | < 5.30 | 8.05 | 7.55 | – | C=CC(=O)N1CCN2C(=O)c3c(NC(C)(C)C)nc(-c4c(O)cccc4F)c(Cl)c3OC[C@H]2C1 [Z69, (6aR)-8-acryloyl-1-(tert-butylamino)-4-chloro-3-(2-fluoro-6-hydroxyphenyl)-6,6a,7,8,9,10-hexahydro-12H-pyrazino[2,1-c]pyrido[3,4-f][1,4]oxazepin-12-one] | –
8 | < 6.00 | 7.54 | 7.17 | – | C=CC(=O)N1CCN2C(=O)c3c(NC(C)C)nc(-c4c(O)cccc4F)c(Cl)c3OC[C@H]2C1 [Z75, (6aR)-8-acryloyl-4-chloro-1-(isopropylamino)-3-(2-fluoro-6-hydroxyphenyl)-6,6a,7,8,9,10-hexahydro-12H-pyrazino[2,1-c]pyrido[3,4-f][1,4]oxazepin-12-one] | –
9 | – | – | – | 7.97 | C=CC(=O)N1CCN2C(=O)c3c(N4C[C@H](N(C)CCF)CC4(C)C)nc(-c4ccccc4F)c(Cl)c3OC[C@H]2C1 (single isomer, unassigned) [Z660-2] | pIC50 [1, 8]: 5.04; pIC50 [3, 9]: 7.33
10 | < 4.52 | 7.99 | 7.95 | – | C=CC(=O)N1CCN2C(=O)c3c(N4CCN(CCO)C[C@@H]4C)nc(-c4c(O)cccc4F)c(Cl)c3OC[C@H]2C1 [Z257, (6aR)-8-acryloyl-4-chloro-3-(2-fluoro-6-hydroxyphenyl)-1-((S)-4-(2-hydroxyethyl)-2-methylpiperazin-1-yl)-6,6a,7 ,8,9,10-hexahydro-12H-pyrazino[2,1-c]pyrido[3,4-f][1,4]oxazepin-12-one] | –
11 | – | – | – | 7.34 | C=CC(=O)N1CCN2C(=O)c3c(N4CCN(C)C[C@@H]4C)nc(-c4c(O)cccc4Cl)c(Cl)c3OC[C@H]2C1 (single isomer, unassigned) [Z455-1] | pIC50 [1, 8]: 5.38; pIC50 [3, 9]: 7.06
12 | < 6.00 | 7.66 | 7.47 | – | C=CC(=O)N1CCN2C(=O)c3c(N4CCOC5CC54)nc(-c4c(O)cccc4F)c(Cl)c3OC[C@H]2C1 (stereo partly drawn) [Z76, (6aR)-8-acryloyl-4-chloro-1-(2-oxa-5-azabicyclo[4.1.0]heptan-5-yl)-3-(2-fluoro-6-hydroxyphenyl)-6,6a,7,8,9,10-hexahydro-12H-pyrazino[2,1-c]pyrido[3,4-f][1,4]oxazepin-12-one] | –
